Results on 30 compounds are retold here after US10428087B2, “Pyrimidinones as PI3K inhibitors” (Incyte Corporation, priority 2009, dated 2019).

Counter-ions that a name gives are not always drawn.

The test system of the assay is Pfeiffer cell line (diffuse large B cell lymphoma). Briefly: Pfeiffer cell proliferation assay (Example B2). Type of assay: cell-based. The conditions noted are these: Homo sapiens, Pfeiffer, Pfeiffer cells, [3H]-thymidine. On the procedure: Pfeiffer cell line (diffuse large B cell lymphoma) was purchased from ATCC (Manassas, Va.) and maintained in the culture medium recommended (RPMI and 10% FBS). To measure the anti-proliferation activity of the PI3Kδ submittals, the Pfeiffer cells were plated with the culture medium (2×10^3 cells/well/per 200 μl) into 96-well ultra-low binding plates (Corning, Corning, N.Y.), in the presence or absence of a concentration range of test compounds. After 3-4 days, [^3H]-thymidine (1 μCi/well) (PerkinElmer, Boston, Mass.) in PBS was then added to the cell culture for an additional 12 hrs before the incorporated radioactivity was separated by filtration with water through GF/B filters (Packard Bioscience, Meridenj, Conn.) and measured by liquid scintillation counting with a TopCount (Packard Bioscience). See Table 3 for data related to compounds of the invention.

One may read the IC50 as the concentration that gives 50% inhibition. The compound `Cc1csc2nc(C(C)Nc3ncnc4[nH]cnc34)c(-c3cc(F)cc(F)c3)c(=O)n12` (stereo not drawn) [Example 12, 6-(3,5-difluorophenyl)-3-methyl-7-[1-(9H-purin-6-ylamino)ethyl]-5H-[1,3]thiazolo[3,2-a]pyrimidin-5-one] yielded an IC50 of 100 to 500 nM. Under `Cc1csc2nc(C(C)Nc3ncnc4[nH]cnc34)c(-c3ccccn3)c(=O)n12` (stereo not drawn) [Example 14, 3-methyl-7-[1-(9H-purin-6-ylamino)ethyl]-6-pyridin-2-yl-5H-[1,3]thiazolo[3,2-a]pyrimidin-5-one] stands more than 1000 nM; under `Cc1csc2nc([C@H](C)Nc3ncnc4[nH]ccc34)c(-c3cc(F)cc(F)c3)c(=O)n12` [Example 17, 6-(3,5-difluorophenyl)-3-methyl-7-[1-(7H-pyrrolo[2,3-d]pyrimidin-4-ylamino)ethyl]-5H-[1,3]thiazolo[3,2-a]pyrimidin-5-one], 100 to 500 nM. Regarding `Cc1csc2nc(C(C)Nc3nc(F)nc4[nH]cnc34)c(-c3cc(F)cc(F)c3)c(=O)n12` (stereo not drawn) [Example 18, 6-(3,5-difluorophenyl)-7-{1-[(2-fluoro-9H-purin-6-yl)amino]ethyl}-3-methyl-5H-[1,3]thiazolo[3,2-a]pyrimidin-5-one], the IC50 fell in the range of 50 to 100 nM. Consider `Cc1csc2nc(C(C)Nc3ncnc4[nH]cnc34)c(-c3ccncc3)c(=O)n12` (stereo not drawn) [Example 19, 3-methyl-7-[1-(9H-purin-6-ylamino)ethyl]-6-pyridin-4-yl-5H-[1,3]thiazolo[3,2-a]pyrimidin-5-one], for which the IC50 was more than 1000 nM. In the case of `Cc1csc2nc(C(C)Nc3ncnc4[nH]cnc34)c(-c3nccs3)c(=O)n12` (stereo not drawn) [Example 20, 3-methyl-7-[1-(9H-purin-6-ylamino)ethyl]-6-(1,3-thiazol-2-yl)-5H-[1,3]thiazolo[3,2-a]pyrimidin-5-one trifluoroacetic acid salt], the IC50 lay within 50 to 100 nM. `Cc1csc2nc(C(C)Nc3ncnc4[nH]cnc34)c(-c3cscn3)c(=O)n12` (stereo not drawn) [Example 21, 3-methyl-7-[1-(9H-purin-6-ylamino)ethyl]-6-(1,3-thiazol-4-yl)-5H-[1,3]thiazolo[3,2-a]pyrimidin-5-one trifluoroacetic acid salt] came in with an IC50 of 50 to 100 nM. Under `Cc1csc2nc(C(C)Nc3ncnc4[nH]cnc34)c(-c3ccc(F)cc3)c(=O)n12` (stereo not drawn) [Example 22, 6-(4-fluorophenyl)-3-methyl-7-[1-(9H-purin-6-ylamino)ethyl]-5H-[1,3]thiazolo[3,2-a]pyrimidin-5-one trifluoroacetic acid salt] stands 100 to 500 nM; under `CC(Nc1nc(N)nc2[nH]cnc12)c1nc2sccn2c(=O)c1-c1cc(F)cc(F)c1` (stereo not drawn) [Example 24, 7-{1-[(2-amino-9H-purin-6-yl)amino]ethyl}-6-(3,5-difluorophenyl)-5H-[1,3]thiazolo[3,2-a]pyrimidin-5-one], 100 to 500 nM; under `CC(Nc1ncnc2[nH]cnc12)c1nc2sccn2c(=O)c1-c1cc(F)cc(F)c1` (stereo not drawn) [Example 25, 6-(3,5-difluorophenyl)-7-[1-(9H-purin-6-ylamino)ethyl]-5H-[1,3]thiazolo[3,2-a]pyrimidin-5-one], 500 to 1000 nM. In turn, `CC(Nc1nc(N)nc2[nH]cnc12)c1nc2sccn2c(=O)c1-c1ccccc1` (stereo not drawn) [Example 27, 7-{1-[(2-amino-9H-purin-6-yl)amino]ethyl}-6-phenyl-5H-[1,3]thiazolo[3,2-a]pyrimidin-5-one] displayed an IC50 of 100 to 500 nM. To `Cc1ccc(-c2c(C(C)Nc3ncnc4[nH]cnc34)nc3scc(C)n3c2=O)cc1` (stereo not drawn) [Example 31, 3-methyl-6-(4-methylphenyl)-7-[1-(9H-purin-6-ylamino)ethyl]-5H-[1,3]thiazolo[3,2-a]pyrimidin-5-one trifluoroacetic acid salt] belongs 100 to 500 nM; to `Cc1csc2nc(C(C)Nc3nc(N)nc4[nH]cnc34)c(-c3cccc(Cl)c3)c(=O)n12` (stereo not drawn) [Example 32, 7-{1-[(2-amino-9H-purin-6-yl)amino]ethyl}-6-(3-chlorophenyl)-3-methyl-5H-[1,3]thiazolo[3,2-a]pyrimidin-5-one trifluoroacetic acid salt], less than 50 nM.

In turn, `Cc1csc2nc(C(C)Nc3nc(N)nc4[nH]cnc34)c(-c3ccccc3F)c(=O)n12` (stereo not drawn) [Example 33, 7-{1-[(2-amino-9H-purin-6-yl)amino]ethyl}-6-(2-fluorophenyl)-3-methyl-5H-[1,3]thiazolo[3,2-a]pyrimidin-5-one trifluoroacetic acid salt] registered an IC50 of less than 50 nM. Compound `Cc1csc2nc(C(C)Nc3nc(N)nc4[nH]cnc34)c(-c3cccc(F)c3F)c(=O)n12` (stereo not drawn) [Example 34, 7-{1-[(2-amino-9H-purin-6-yl)amino]ethyl}-6-(2,3-difluorophenyl)-3-methyl-5H-[1,3]thiazolo[3,2-a]pyrimidin-5-one trifluoroacetic acid salt] displayed an IC50 of less than 50 nM. Under `Cc1csc2nc(C(C)Nc3nc(N)nc4[nH]cnc34)c(-c3cc(F)cc(Cl)c3)c(=O)n12` (stereo not drawn) [Example 35, 7-{1-[(2-amino-9H-purin-6-yl)amino]ethyl}-6-(3-chloro-5-fluorophenyl)-3-methyl-5H-[1,3]thiazolo[3,2-a]pyrimidin-5-one trifluoroacetic acid salt] stands less than 50 nM; under `Cc1csc2nc(C(C)Nc3ncnc4[nH]cnc34)c(-c3cccc(Cl)c3)c(=O)n12` (stereo not drawn) [Example 36, 6-(3-chlorophenyl)-3-methyl-7-[1-(9H-purin-6-ylamino)ethyl]-5H-[1,3]thiazolo[3,2-a]pyrimidin-5-one trifluoroacetic acid salt], 50 to 100 nM; under `Cc1csc2nc(C(C)Nc3ncnc4[nH]cnc34)c(-c3cc(F)cc(Cl)c3)c(=O)n12` (stereo not drawn) [Example 37, 6-(3-chloro-5-fluorophenyl)-3-methyl-7-[1-(9H-purin-6-ylamino)ethyl]-5H-[1,3]thiazolo[3,2-a]pyrimidin-5-one trifluoroacetic acid salt], 50 to 100 nM.

`Cc1csc2nc(C(C)Nc3nc(N)nc4[nH]cnc34)c(-c3cncc(F)c3)c(=O)n12` (stereo not drawn) [Example 38, 7-{1-[(2-amino-9H-purin-6-yl)amino]ethyl}-6-(5-fluoropyridin-3-yl)-3-methyl-5H-[1,3]thiazolo[3,2-a]pyrimidin-5-one trifluoroacetic acid salt] came in with an IC50 of 50 to 100 nM. To `Cc1csc2nc(C(C)Nc3ncnc4[nH]cnc34)c(-c3ccccc3F)c(=O)n12` (stereo not drawn) [Example 40, 6-(2-fluorophenyl)-3-methyl-7-[1-(9H-purin-6-ylamino)ethyl]-5H-[1,3]thiazolo[3,2-a]pyrimidin-5-one trifluoroacetic acid salt] belongs 50 to 100 nM. To `Cc1csc2nc(C(C)Nc3ncnc4[nH]cnc34)c(-c3cccc(F)c3F)c(=O)n12` (stereo not drawn) [Example 41, 6-(2,3-difluorophenyl)-3-methyl-7-[1-(9H-purin-6-ylamino)ethyl]-5H-[1,3]thiazolo[3,2-a]pyrimidin-5-one trifluoroacetic acid salt] belongs 50 to 100 nM; to `Cc1csc2nc(C(C)Nc3ncnc4[nH]cnc34)c(-c3cncc(F)c3)c(=O)n12` (stereo not drawn) [Example 42, 6-(5-fluoropyridin-3-yl)-3-methyl-7-[1-(9H-purin-6-ylamino)ethyl]-5H-[1,3]thiazolo[3,2-a]pyrimidin-5-one trifluoroacetic acid salt], 100 to 500 nM; to `Cc1csc2nc(C(C)Nc3ncnc4[nH]cnc34)c(-c3cc(F)ccc3F)c(=O)n12` (stereo not drawn) [Example 45, 6-(2,5-difluorophenyl)-3-methyl-7-[1-(9H-purin-6-ylamino)ethyl]-5H-[1,3]thiazolo[3,2-a]pyrimidin-5-one trifluoroacetic acid salt], 50 to 100 nM.

For `Cc1csc2nc([C@H](C)Nc3ccnc4[nH]cnc34)c(-c3cccc(F)c3)c(=O)n12` [Example 46, 6-(3-Fluorophenyl)-7-[(1S)-1-(3H-imidazo[4,5-b]pyridin-7-ylamino)ethyl]-3-methyl-5H-[1,3]thiazolo[3,2-a]pyrimidin-5-one], the IC50 was less than 50 nM. To `CC(Nc1ncnc2[nH]cnc12)c1nc2scc(C(F)(F)F)n2c(=O)c1-c1cccc(F)c1` (stereo not drawn) [Example 48, 6-(3-Fluorophenyl)-7-[1-(9H-purin-6-ylamino)ethyl]-3-(trifluoromethyl)-5H-[1,3]thiazolo[3,2-a]pyrimidin-5-one] belongs 50 to 100 nM; to `Cc1cccc2nc(C(C)Nc3ncnc4[nH]cnc34)c(-c3ccccc3)c(=O)n12` (stereo not drawn) [Example 49, 6-Methyl-3-phenyl-2-[1-(9H-purin-6-ylamino)ethyl]-4H-pyrido[1,2-a]pyrimidin-4-one trifluoroacetic acid salt], 50 to 100 nM. Compound `Cc1cccc2nc(C(C)Nc3nc(N)nc4[nH]cnc34)c(-c3ccccc3)c(=O)n12` (stereo not drawn) [Example 50, 2-{1-[(2-Amino-9H-purin-6-yl)amino]ethyl}-6-methyl-3-phenyl-4H-pyrido[1,2-a]pyrimidin-4-one trifluoroacetic acid salt] showed an IC50 of less than 50 nM. On to `Cc1cccc(-c2c(C(C)Nc3ncnc4[nH]cnc34)nc3cccc(C)n3c2=O)c1` (stereo not drawn) [Example 51, 6-Methyl-3-(3-methylphenyl)-2-[1-(9H-purin-6-ylamino)ethyl]-4H-pyrido[1,2-a]pyrimidin-4-one trifluoroacetic acid salt], for which the IC50 was 100 to 500 nM.

`Cc1cccc(-c2c(C(C)Nc3nc(N)nc4[nH]cnc34)nc3cccc(C)n3c2=O)c1` (stereo not drawn) [Example 52, 2-{1-[(2-Amino-9H-purin-6-yl)amino]ethyl}-6-methyl-3-(3-methylphenyl)-4H-pyrido[1,2-a]pyrimidin-4-one trifluoroacetic acid salt] gave a half-inhibitory concentration (IC50) of 50 to 100 nM.

For `Cc1cccc2nc(C(C)Nc3ncnc4[nH]cnc34)c(-c3cccc(Cl)c3)c(=O)n12` (stereo not drawn) [Example 53, 3-(3-Chlorophenyl)-6-methyl-2-[1-(9H-purin-6-ylamino)ethyl]-4H-pyrido[1,2-a]pyrimidin-4-one trifluoroacetic acid salt], the IC50 was 50 to 100 nM.
